According to patent publication US8263642B2, “Antimicrobial compounds and methods of use thereof” (Vanderbilt University, priority 2008, dated 2012):

Legend:
[1] = tested on: HssRS-dependent hrtAB expression; test: Luminescence-based assay to monitor HssRS-dependent hrtAB expression (phrtABlux reporter), Newman; type: cell-based, Staphylococcus aureus; conditions: Newman; for activation at 0.0825 µM: Staphylococcus aureus, NEWMAN, read-out: % Lumi, luminescence induced by the compound compared to the heme control (82.5 nM) in the same plate; for Luminescence: raw luminescence value obtained in a luminometer
Method: (§1) With reference to Table 1, “Luminescence” refers to the raw luminescence value obtained in a luminomter. “Control (82.5 nm)” refers to the luminescence value obtained from heme at 82.5 nM as a positive control in the same plate as the experimental. “% lum” is the percentage of luminescence induced by the compound as compared to the heme control in the same plate. […] All of these assays are described in the application. […] “N/T” indicates the test was not performed.
A hrtAB-driven expression system was created in the pXen vector system (Xenogen) (Francis, K. P., D. Joh, C. Bellinger-Kawahara, M. J. Hawkinson, T. F. Purchio, and P. R. Contag. 2000. Monitoring bioluminescent Staphylococcus aureus infections in living mice using a novel luxABCDE construct. Infect Immun 68:3594-3600). This vector contains a promoterless luxCDABE operon from Photorabdus luminescens which produces blue green light when expressed. The luxCDABE encodes for a fatty acid reductase (LuxCDE) that produces a long chain fatty aldehyde which, when combined with cellular flavin mononucleotide, is oxidized by a luciferase (LuxAB) to produce light. Therefore, this system is useful in that it bypasses the need for substrate addition and is capable of generating light in the absence of any added reagents. Furthermore, the luminescent signal produced by the combined activities of LuxAB and LuxCDE is of sufficient intensity to be visualized in unmanipulated intact bacteria.
To establish an assay that measures HssRS-dependent expression of luxCDABE, the promoter for hrtAB upstream of luxCDABE was cloned and transformed this vector (phrtABlux) into wildtype and ΔhssR S. aureus. A promoterless vector (plux) and a plasmid containing luxCDABE under the control of a constitutive promoter (psrtAlux) (Mazmanian, S. K., G. Liu, H. Ton-That, and O. Schneewind. 1999. “Staphylococcus aureus sortase, an enzyme that anchors surface proteins to the cell wall.” Science 285:760-763) were included as negative and positive controls, respectively. Initially, wildtype S. aureus harboring either plux, phrtABlux, or psrtAlux were plated on solid medium that either lacked heme or contained 4 μM heme. Only wildtype S. aureus containing psrtAlux produced light on solid media regardless of the presence or absence of heme. […] Light was not produced by bacteria containing plux in either condition.
To adapt this system for a HTS to measure ligand recognition by HssRS, luminescence of wildtype and ΔhssR harboring the above listed plasmids in liquid media with or without heme was measured. […] Taken together, these experiments establish a whole cell […] assay that can identify small molecule modifiers of HssRS. This screen, in some aspects, can identify molecules that can be used as molecular probes in structure-function analyses to determine the mechanism by which S. aureus sense host heme.
Upon staphylococcal exposure to heme, HssRS senses heme and activates expression of hrtAB. This process can be measured using a reporter assay that employs a vector encoding the light-producing luxCDABE operon under the control of the hrtAB promoter. This assay results in whole cell luminescence upon HssRS-dependent activation of hrtAB, forming the foundation for the development of an assay suitable for high-throughput screens for small molecule activators of HssRS.
To develop an automated HTS format, S. aureus wildtype and ΔhssR harboring reporter constructs (psrtAlux, phrtAlux, plux) can be grown for 15 hours at 37° C. in tryptic soy broth (TSB) containing 10 μg/ml chloramphenicol. The addition of chloramphenicol is useful to ensure that the staphylococci propagate the reporter plasmid upon cell division. Following growth, bacterial cultures can be normalized and 2×10^7 cells (approximately 2 μl) can be added to individual wells of black walled, clear bottomed, 96-well plates. […]

[2] = tested on: hrtAB-driven expression of the xylE reporter gene; test: XylE reporter assay (hrtAB promoter-xylE), Newman; type: cell-based, Staphylococcus aureus; conditions: for XylE (0.05): level of XylE induction at 0.05 uM of the compound; for XylE (0.5): level of XylE induction at 0.5 uM of the compound; for XylE (5.0): level of XylE induction at 5.0 uM of the compound; for XylE (50.0): level of XylE induction at 50.0 uM of the compound
Method: as §1
Compounds that activate HssRS-driven hrtAB expression in the luciferase-based screen can be subjected to two separate counter screens to confirm these compounds as active hits. First, compounds of interest can be tested for their ability to activate expression of hrtAB in the XylE expression assay described hereinbelow. This is an in vitro assay that measures hrtAB-driven expression of the xylE reporter gene. The XylE-based reporter assay utilizes slightly more manipulations than the primary luciferase-based screen. […] It should be appreciated that a shortcoming of this counter screen is that it measures reporter gene expression, which is a similar activity as that measured in the primary assay. To address this shortcoming, compounds that are positive in both XylE- and luciferase-based assays can be subjected to a second counter screen as described hereinbelow.
S. aureus strains harboring the appropriate reporter construct were inoculated into 500 μl of TSB containing 10 μg/ml chloramphenicol in 1.5 ml tubes. Cultures were grown O/N at 37° C. with shaking. Bacteria were pelleted by centrifugation and spent medium was aspirated. The pellet was washed once with 500 μl of 20 mM potassium phosphate, pH 7.6, and resuspended in 150 μl of 100 mM potassium phosphate buffer, pH 8.0, 10% (v/v) acetone, 25 μg/ml lysostaphin. After 20 minute incubation at 37° C. and 5 minute incubation on ice, samples were centrifuged at 20,000 g for 30 minutes at 4° C. 1-10 μl of supernatant was added to a 96-well plate and 200 μl of 100 mM potassium phosphate, pH 8.0, 0.2 mM pyrocatechol was added to each well. Formation of 2-hydroxymuconic semialdehyde was tracked by measuring the absorbance at 375 nm every minute for 30 minutes on a Varian MP 50 microplate reader. Protein concentration in samples was determined by BCA (Pierce). One unit of specific activity of XylE in a sample is defined as the formation of 1 nmol of 2-hydroxymuconic semialdehyde per minute per milligram of cellular protein at 30° C. (Chien, Y., Manna, A. C., Projan, S. J., and Cheung, A. L. 1999, “SarA, a global regulator of virulence determinants in Staphylococcus aureus, binds to a conserved motif essential for sar-dependent gene regulation. J. Biol. Chem. 274, 37169-37176).
The hrtAB intergenic region was fused to the xylE structural gene by PCR-SOE. In the first reaction, primer P1B:[…] and P2B:[…] were used to amplify the hrtAB intergenic region from S. aureus strain Newman genomic DNA. In the second PCR reaction primers P3B:[…] and P4B:[…] were used to amplify the xylE structural gene using pALC1639 template DNA (provided by Dr. Ambrose Cheung) and PCR product purified using a Qiagen gel extraction kit. For the PCRSOE reaction, a 1:300 dilution of purified reaction 1 and reaction 2 PCR products was mixed and amplified by PCR using […]. This yielded a construct in which the hrtAB intergenic region is fused to the xylE gene in such a manner that the position of the start codon for xylE corresponds to the position of the start codon for […] in the hrtAB locus. The hrtAB promoter-xylE fusion DNA was then subcloned into pOS1. As a control we also constructed a promoterless xylE vector. The xylE gene was amplified from pACL1639 template DNA using the primers P1C:[…] and P2C:[…] and then cloned into the pOS1 vector.

Compound | activation at 0.0825 µM [1] [%] | Luminescence [1] | XylE (0.05) [2] | XylE (0.5) [2] | XylE (5.0) [2] | XylE (50.0) [2]
CC1(C)CC(=O)C(=CNCc2ccc(F)cc2)C(=O)C1 | 120 | 1003 | 0.07 | 0.09 | 0.9 | 0.06
CSc1ccc(NC=C2C(=O)CC(C)(C)CC2=O)cc1 | 161 | 1347 | 0.04 | 0.05 | 0.01 | 1
C/C=C/C=N/Nc1nnc2c(n1)[nH]c1ccccc12 | 202 | 1696 | 0.04 | 0.06 | 0.1 | 1
O=C1c2ccccc2C(=O)C1C1=NNC(c2ccccc2)C1 (centres unmarked) | 81.7 | 2680 | 0.05 | 0.06 | 0.1 | 0.8
COc1ccc(/N=c2\nc(-c3ccccc3)n(-c3ccc(C)cc3)s2)cc1 | 266 | 757 | 0.02 | 0.04 | 0 | 0
O=C(Nc1ccc(NC(=O)c2ccccc2)c(Cl)c1)c1ccccc1 | 102 | 291 | 0.06 | 0.05 | 0.07 | 0.02
Cc1cc(-c2ccc(N)cc2)nc2ccc3ccccc3c12 | 136 | 576 | 0.09 | 0.06 | 0.02 | 0.04
Cc1cccc(NC(=O)c2cc3ccccc3cc2O)c1 | 217 | 794 | 0.02 | 0.09 | 0.1 | 0.02
CC(/C=N/NC(=O)C1COc2ccccc2O1)=C\c1ccccc1 (centres unmarked) | 139 | 507 | 0.07 | 0.04 | 0.2 | 0.05
Cc1cccc(NC(=S)N/N=C/c2cc(Br)ccc2O)c1 | 161 | 589 | 0.09 | 0.2 | 0 | 0
NS(=O)(=O)c1ccc(NC(=O)CCCOc2ccc(Cl)cc2Cl)cc1 | 45.6 | 325 | 0.03 | 0.05 | 3 | 0
O=C(Nc1ccccc1C(=O)Nc1ccc(Cl)cc1)c1ccccc1 | 92 | 309 | 0.05 | 0.08 | 0.08 | 0.06
COc1ccc(CN2CCCN(C)CC2)c(C)c1C | 127 | 534 | 0 | 0 | 1 | 1
CCc1ccccc1NC(=O)C1CCCCC1C(=O)O (centres unmarked) | 136 | 576 | 1 | 0.05 | 0.02 | 1
Brc1ccc(CN2CCN(c3ccccc3)CC2)o1 | 39.3 | 166 | 0.07 | 0.05 | 1 | 0.02
Oc1ccc(CCNC2CCCc3c2[nH]c2ccc(-c4ccccc4)cc32)cc1 (centres unmarked) | 127 | 534 | 0.06 | 0.02 | 1 | 1
O=S(=O)(Nc1cc(Cl)ccc1Cl)c1ccc(Cl)cc1 | 146 | 618 | 0.02 | 0.07 | 0.5 | 0.1
COc1ccc(Cl)cc1NC(=O)Nc1ccc(Cl)cc1 | 180 | 586 | 1 | 0.03 | 0 | 0.03
O=C(/C=C/c1ccc([N+](=O)[O-])s1)Nc1ccc(I)cc1 | 107 | 678 | 0.09 | 4 | 5 | 6
Cc1cc(O)c(NC(=S)NC(=O)c2ccc(C(C)(C)C)cc2)cc1C | 127 | 808 | 0.09 | 0.2 | 0.2 | 0.3
O=[N+]([O-])c1ccc(O)c(C2NN=C(Cc3ccccc3)S2)c1 (centres unmarked) | 871 | 2805 | 0.02 | 0.05 | 1 | 1
NS(=O)(=O)c1ccc(Nc2nc(-c3ccc(Cl)cc3)cs2)cc1 | – | 4946 | 0.04 | 1 | 1 | 0.02
